Literature values in US10576041B2, “Extended relief dosage form” (The Procter & Gamble Company, priority 2016, dated 2020).
Where a name gives a salt, the structure may show the parent alone.

Conditions: immediate release; in the human body

Row | Structure (SMILES) | half-life [h]
1 | COc1ccc2c(c1)[C@]13CCCC[C@@H]1[C@H](C2)N(C)CC3 [dextromethorphan hydrobromide] | 3 to 5
2 | CN[C@@H](C)[C@@H](O)c1ccccc1 [pseudoephedrine hydrochloride] | 4.3 to 8
